Measured values from patent publication US10466259B2, “Synthetic antigen compositions for detecting anti-phosphatidylethanolamine antibodies” (Northwestern Univeristy, priority 2015, dated 2019).
“Also recorded” adds a separate entry of the source.

Tests used:
Type in all cases: binding, human
[1] = system: cofactor-independent aPE IgM; experiment: ELISA of synthetic PE compositions, cofactor-independent aPE IgM; conditions: FIG. 9
Method: FIGS. 12A-B. Determination of PE coating amount and its impact on ELISA. A, B. determination of PE coating Amount. The indicated amount of PE was coated on 96 well plate and Elisa was performed. The relative OD405 value was deducted the normal serum value. The error bar represents SEM, n=3. A for egg PE, B for 20% 18:0 PE, 13.3% 18:1 PE, 39.9% 20:4 PE, and 26.6% 22:6 PE.
FIG. 13. A head-to-head comparison on the ELISA performance between egg PE and the synthetic formulation. The ELISA place was coated with 0.5 μg of egg PE or the kit formulation (20% 18:0 PE, 13.3% 18:1 PE, 39.9% 20:4 PE, and 26.6% 22:6 PE). OD405 was measured after ELISA and the relative OD value was subtracted from the normal human serum value. The net value was the mean of triplicates. A total 11 patient serum samples were tested for experiments.
Egg PE is currently the most widely used source of PE in ELISA tests for aPE.

[2] = system: cofactor-independent aPE IgG; experiment: ELISA of synthetic PE compositions, cofactor-independent aPE IgG
Method: FIG. 15. Head-to-head comparison between egg PE and synthetic 20:4 PE on the ELISA for cofactor-independent aPE IgG reactivity. The 96 well plate was coated with 1 mg of indicated PE per well, OD405 was measured after ELISA and the relative OD value was determined by subtracting the OD value of normal human serum from the patient sample. […] A total 14 patient serums were tested.

[3] = system: cofactor-independent IgG aPE; experiment: ELISA with affinity-purified total IgG, cofactor-independent sample; conditions: FIG. 18, total IgG 200 μg/ml
Method: (§1) FIG. 18. aPE reactivity to egg PE, 20:4 PE and 18:1 PE using affinity-purified total IgG from a cofactor-dependent and a cofactor-independent IgG aPE patient plasma. For each ELISA test, the total IgG was used at a concentration of 200 μg/ml. […] The values are means of triplicates.
(§2) To minimize uncertainties caused by potential confounding factors in the serum and variations in immunoglobulin contents, the total IgG was isolated from representative aPE patient serum samples and was used to validate ELISA assays.
(§3) Microplates were coated using Egg PE, 20:4 PE or 18:1 PE for IgG aPE ELISA for normal human serum, a representative cofactor-dependent and cofactor-independent patient serum.

[4] = system: cofactor-dependent IgG aPE; experiment: ELISA with affinity-purified total IgG, cofactor-dependent samples
Method: as §1
The values are means of triplicates.
as §2, §3

cofactor-independent aPE = experiment: aPE ELISA, cofactor-independent patient serum (Example 1); conditions: representative patient serum, antigen 1 to 400 μg/ml, FIG. 1
Method: For aPE ELISA assays (ref. 14; herein incorporated by reference in its entirety), microtiter plates (PolySorp, Thermo Fisher, Pittsburgh, USA) were coated with 50 μl of a solution containing various concentrations of egg yolk PE or equal molar amounts of DOPE in ethanol:chloroform (4:1) and dried by evaporation at room temperature (RT) in an extractor shielded from light. Each well was blocked for two hours at RT with 10% BSA in PBS followed by 50 μl of patient serum diluted 1/100 in PBS for one hour at RT. aPEs were assessed by using alkaline phosphatase conjugated polyclonal antibody (Ab) against either human IgG or IgM. The plates were washed three times with PBS after blocking, serum and conjugate incubations. After color development with paranitrophenyl phosphate as substrate, optical density at 405 nm was measured. OD values of pooled normal serum control were subtracted from those of patient serum samples measured with the same PE concentration.
In order to determine the optimal concentration of antigen in aPE ELISA, wells were coated with a series of concentrations of egg yolk PE ranging from 1 to 400 μg/ml aPEs or normal control serum were assessed with alkaline phosphatase conjugated polyclonal Ab to either IgG or IgM. […]

Compound	ELISA performance compared with egg PE ([1]; 0.5 mg PE per well, relative OD405 normalized with egg PE, serum from patient J083006H, n=3)	ELISA performance compared with other single PE species ([1]; unsaturated versus saturated, longer versus shorter fatty acid tails)	OD value relative to egg PE ([2]; FIG. 14, representative patient serum sample, 1 mg PE per well)	relative ELISA performance against egg PE ([2]; FIG. 14, representative patient serum sample, 1 mg PE per well, n=3)	head-to-head ELISA performance versus egg PE ([2]; FIG. 15, 14 patient serum samples, P=0.012)	improvement of aPE reactivity versus egg PE ([2]; FIG. 15, some samples)	aPE reactivity of purified total IgG [3]	aPE reactivity of purified total IgG ([4]; FIG. 18, cofactor-dependent sample, total IgG 200 μg/ml)	aPE reactivity of purified total IgG ([4]; FIG. 19, two other cofactor-dependent aPE samples)	antigen concentration at which aPE reactivities peaked (cofactor-independent aPE)
CCCCC/C=C\C/C=C\C/C=C\C/C=C\CCCC(=O)OC[C@H](COP(=O)(O)OCCN)OC(=O)CCC/C=C\C/C=C\C/C=C\C/C=C\CCCCC [20:4 PE, arachidonic PE]	out-perform egg PE	better performance	~14 folds	highest OD value	out-performed egg PE significantly	≥ 500%	significant reactivity; also recorded: prefer	not	not	–
CCCCCCCC/C=C\CCCCCCCC(=O)OC[C@H](COP(=O)(O)OCCN)OC(=O)CCCCCCC/C=C\CCCCCCCC [DOPE, dioleoyl PE]	–	–	–	–	–	–	–	–	–	around 5 μg/ml
